What all share (assay): Bliss excess, mean over the matrix (fraction); higher = more synergy
The subject of experiment [1] is CAL-51 (Breast Carcinoma). Summed up: (§1)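 Bliss excess equals the observed combination effect minus the expected value EA + EB − EA·EB, where EA and EB are the effects of each agent alone. Combination Emax is the second-highest inhibition within the matrix. Inhibition was scaled from CellTiter-Glo 2.0 luminescence, with 0 set by vehicle wells and 1 by blank wells, after 72 hours of two-drug dosing of cells plated in 1536-well plates.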

Experiment [2] deals with CAL-54 (Kidney Carcinoma). The procedure, abridged: as §1
The subject of experiment [3] is HCC-15 (Squamous Cell Lung Carcinoma). Summed up:
as §1

Experiment [4] concerns HDLM-2 (Hodgkin's Lymphoma). The procedure, abridged: as §1
For another experiment, the system named is HMV-II (Melanoma). Summed up:
as §1

In experiment [5] the test system is Hs-633T (Other Solid Carcinomas). The procedure, abridged: as §1
Experiment [6] relates to KYSE-410 (Esophageal Squamous Cell Carcinoma). Summed up:
as §1

The test system of experiment [7] is LU-139 (Small Cell Lung Carcinoma). Summed up: as §1
For experiment [8], the system named is MHH-PREB-1 (B-Cell Non-Hodgkin's Lymphoma). Summed up: as §1
Another experiment deals with NCI-H2795 (Mesothelioma). Summed up: as §1
Another experiment deals with NCI-H28 (Mesothelioma). Summed up: as §1
In experiment [9] the test system is OC-314 (Ovarian Carcinoma). The procedure, abridged: as §1
Experiment [10] relates to PCI-30 (Head and Neck Carcinoma). Summed up: as §1
Experiment [11] concerns SK-OV-3 (Ovarian Carcinoma). The procedure, abridged: as §1
The test system of experiment [12] is SUP-T1 (T-Lymphoblastic Leukemia). Summed up: as §1
The subject of experiment [13] is SW1116 (Colorectal Carcinoma). The procedure, abridged:
as §1

In experiment [14] the test system is SW1271 (Small Cell Lung Carcinoma). The procedure, abridged: as §1
Experiment [15] concerns SW626 (Colorectal Carcinoma). Summed up: as §1
Experiment [16] deals with TE-4 (Esophageal Squamous Cell Carcinoma). Summed up:
as §1

The test system of experiment [17] is UMC-11 (Other Solid Carcinomas). Summed up: as §1

Consider seven compounds from the supplement of paper PMC11061612.

As for `CN(C)CCCOc1ccc(-c2ccc3ncc4c(c3c2)n(C2CCOCC2)c(=O)n4C)cn1` [AZD0156] + O=C(c1cc(Cc2n[nH]c(=O)c3ccccc23)ccc1F)N1CCN(C(=O)C2CC2)CC1 [Olaparib] (first compound max 3 µM, partner max 3 µM), the Bliss excess in experiment [1] was 0.051; in [2] it was 0.034; in [3], 0.136; in experiment [4] it was 0.0319; in the experiment on HMV-II (Melanoma) it was -0.0287; in experiment [5], 0.17. Besides, the Bliss excess in experiment [6] was 0.0007; in experiment [7] it was 0.0352; in experiment [8] it was 0.0175; with NCI-H2795 (Mesothelioma) it was 0.0432; in the experiment with NCI-H28 (Mesothelioma), -0.0415; in experiment [9], 0.145. The Bliss excess in experiment [10] is -0.0129; in [11], -0.0179; in experiment [12], 0.0598; in experiment [13], -0.0431; in [14], 0.0098; in experiment [15], -0.0326. Further, the Bliss excess in [16] is 0.0387; in [17], 0.0204.

`NC1(C(=O)N[C@@H](CCO)c2ccc(Cl)cc2)CCN(c2ncnc3[nH]ccc23)CC1` [Capivasertib] + CC(C)n1c(=O)n(C)c2cnc3cc(F)c(-c4ccc(OCCCN5CCCCC5)nc4)cc3c21 [AZD1390] (first compound max 10 µM, 7x7, partner max 0.3 µM): the Bliss excess was -0.0972 in [1]; -0.0687 in experiment [2]; -0.0608 in [3]; -0.0002 in experiment [4]; -0.0435 in the experiment on HMV-II (Melanoma); -0.0656 in experiment [5]. The Bliss excess is -0.0795 in [6]; -0.0204 in [7]; -0.0353 in experiment [8]; -0.0483 with NCI-H2795 (Mesothelioma); -0.0776 in the experiment on NCI-H28 (Mesothelioma); -0.0412 in experiment [9]. The Bliss excess in experiment [10] was -0.0488; in experiment [11], -0.0754; in experiment [12], -0.0615; in [13], -0.0335; in [14], -0.0347; in [15], -0.0828. Also, the Bliss excess in experiment [16] was -0.0233; in experiment [17], -0.0807.

With `CN(CCO)CC[C@H](CSc1ccccc1)Nc1ccc(S(=O)(=O)NC(=O)c2ccc(N3CCC([C@@H](O)c4ccccc4-c4ccc(Cl)cc4)CC3)cc2)cc1S(=O)(=O)C(F)(F)F` [AZD4320] + CN(C)CCCOc1ccc(-c2ccc3ncc4c(c3c2)n(C2CCOCC2)c(=O)n4C)cn1 [AZD0156] (first compound max 1 µM, 7x7, partner max 1 µM), the Bliss excess is -0.034 in experiment [1]; -0.0224 in [2]; -0.0137 in [3]; -0.0667 in experiment [4]; -0.0267 in the experiment on HMV-II (Melanoma); -0.014 in [5]. The Bliss excess in experiment [6] is -0.0482; in experiment [7] it was -0.0164; in experiment [8], 0.0075; in the experiment with NCI-H2795 (Mesothelioma) it was -0.0596; with NCI-H28 (Mesothelioma), -0.0693; in [9] it was -0.0231. In addition, the Bliss excess in experiment [10] is -0.0931; in experiment [11], -0.0364; in experiment [12], -0.0333; in [13], -0.069; in experiment [14] it was -0.0413; in experiment [15], -0.0545. Besides, the results for the Bliss excess in experiment [16] and in experiment [17] were -0.0285 and -0.0015, respectively.

With `Cc1c2c(nn1C)CSCc1cc(n(C)n1)CSc1cc(c3ccccc3c1)OCCCc1c(C(=O)O)n(C)c3c-2c(Cl)ccc13` [AZD5991] + Cn1cnc2c(F)c(Nc3ccc(Br)cc3Cl)c(C(=O)NOCCO)cc21 [Selumetinib] (first compound max 1 µM, 7x7, partner max 3 µM), the Bliss excess in experiment [1] is 0.0634; in [2], 0.0203; in experiment [3], 0.0217; in experiment [4], -0.0477; in the experiment on HMV-II (Melanoma), 0.0066; in [5], 0.0542. Further, the Bliss excess is -0.0058 in [6]; -0.0283 in experiment [7]; 0.0113 in experiment [8]; 0.0278 in the experiment on NCI-H2795 (Mesothelioma); -0.026 with NCI-H28 (Mesothelioma); -0.0313 in [9]. Moreover, the Bliss excess in experiment [10] was -0.0352; in experiment [11] it was -0.0597; in experiment [12], -0.0246; in experiment [13] it was -0.032; in experiment [14], -0.0287; in experiment [15] it was 0.0233. Moreover, the Bliss excess amounted to 0.0329 in experiment [16] and 0.0198 in experiment [17].

With `CC(=O)c1c(C)c2cnc(Nc3ccc(N4CCNCC4)cn3)nc2n(C2CCCC2)c1=O` [Palbociclib] + Cc1c2c(nn1C)CSCc1cc(n(C)n1)CSc1cc(c3ccccc3c1)OCCCc1c(C(=O)O)n(C)c3c-2c(Cl)ccc13 [AZD5991] (first compound max 10 µM, 7x7, partner max 1 µM), the Bliss excess in experiment [1] is 0.0124; in [2], -0.0781; in experiment [3], -0.0501; in experiment [4] it was -0.072; in the experiment with HMV-II (Melanoma) it was -0.0185; in experiment [5] it was 0.004. Further, the Bliss excess was -0.0657 in experiment [6]; 0.0198 in experiment [7]; -0.0405 in [8]; 0.0419 in the experiment on NCI-H2795 (Mesothelioma); -0.0319 in the experiment on NCI-H28 (Mesothelioma); -0.023 in experiment [9]. In addition, the Bliss excess is -0.0224 in [10]; -0.0569 in experiment [11]; 0.0394 in experiment [12]; -0.025 in [13]; -0.0193 in [14]; -0.0211 in [15]. The Bliss excess in experiment [16] was -0.0598; in [17], -0.0475.

Consider `CN(C)CCCOc1ccc(-c2ccc3ncc4c(c3c2)n(C2CCOCC2)c(=O)n4C)cn1` [AZD0156] + C=CCn1c(=O)c2cnc(Nc3ccc(N4CCN(C)CC4)cc3)nc2n1-c1cccc(C(C)(C)O)n1 [AZD1775] (first compound max 1 µM, partner max 1 µM), for which the Bliss excess in [1] was -0.0303; in experiment [2] it was -0.043; in experiment [3], -0.0346; in [4], -0.0554; in the experiment on HMV-II (Melanoma), -0.0182; in [5] it was -0.007. Moreover, the Bliss excess was -0.0464 in experiment [6]; -0.0479 in experiment [7]; 0.0036 in [8]; -0.0131 in the experiment with NCI-H2795 (Mesothelioma); -0.0066 with NCI-H28 (Mesothelioma); -0.0141 in experiment [9]. The Bliss excess was -0.0356 in [10]; -0.0433 in experiment [11]; -0.0251 in [12]; -0.0336 in experiment [13]; -0.0895 in [14]; -0.0576 in [15]. The figures for the Bliss excess in experiment [16] and in [17] were -0.0599 and -0.0358, respectively.

With `Cc1c2c(nn1C)CSCc1cc(n(C)n1)CSc1cc(c3ccccc3c1)OCCCc1c(C(=O)O)n(C)c3c-2c(Cl)ccc13` [AZD5991] + C=CCn1c(=O)c2cnc(Nc3ccc(N4CCN(C)CC4)cc3)nc2n1-c1cccc(C(C)(C)O)n1 [AZD1775] (first compound max 1 µM, partner max 1 µM), the Bliss excess in [1] was 0.045; in experiment [2] it was -0.0522; in experiment [3], 0.001; in experiment [4], 0.0055; in the experiment on HMV-II (Melanoma), 0.0001; in experiment [5] it was -0.0399. Moreover, the Bliss excess was 0.0218 in experiment [6]; -0.0421 in [7]; 0.0023 in experiment [8]; 0.0734 in the experiment with NCI-H2795 (Mesothelioma); -0.0023 in the experiment with NCI-H28 (Mesothelioma); 0.0319 in experiment [9]. Besides, the Bliss excess in [10] was 0.0371; in experiment [11], 0.0698; in [12] it was 0.0028; in experiment [13] it was 0.005; in [14], -0.0385; in experiment [15] it was 0.0446. Further, the Bliss excess is 0.0115 in [16] and -0.0732 in experiment [17].
